Laboratory results taken from US12590066B2, “Fused-heterocyclyl-carbonohydrazonoyl dicyanide compounds and use thereof” (KOREA INSTITUTE OF SCIENCE AND TECHNOLOGY, priority 2020, dated 2026).

What was measured:
Tau-BiFC cells = assay: Cell viability (stained nuclei count) in Tau-BiFC cells; assay type: cell-based; conditions: 10 μM compound, 48 hours; Forskolin-only group = 100% cell viability
Outline: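 Tau-BiFC cells co-treated 48 h with 30 μM forskolin and compounds (1, 3, 10 μM screen; 0.01–30 μM dose-response). BiFC fluorescence normalized to forskolin-only (100% aggregation) minus untreated gives aggregation inhibition and IC50; viability as Hoechst-stained nuclei count relative to forskolin-only.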

CYP2D6 = target: T1, CYP2D6 (Homo sapiens, UniProt P10635); assay: Inhibitory effect on CYP coenzyme activity, human liver microsomes; assay type: in vitro ADME; conditions: 10 μM compound, human liver microsomes 0.25 mg/mL, substrate dextromethorphan, 15 minutes
T1 construct: human liver microsomes (0.25 mg/mL); from tissue; host or cells: human liver microsomes
T1 sequence (P10635 whole entry): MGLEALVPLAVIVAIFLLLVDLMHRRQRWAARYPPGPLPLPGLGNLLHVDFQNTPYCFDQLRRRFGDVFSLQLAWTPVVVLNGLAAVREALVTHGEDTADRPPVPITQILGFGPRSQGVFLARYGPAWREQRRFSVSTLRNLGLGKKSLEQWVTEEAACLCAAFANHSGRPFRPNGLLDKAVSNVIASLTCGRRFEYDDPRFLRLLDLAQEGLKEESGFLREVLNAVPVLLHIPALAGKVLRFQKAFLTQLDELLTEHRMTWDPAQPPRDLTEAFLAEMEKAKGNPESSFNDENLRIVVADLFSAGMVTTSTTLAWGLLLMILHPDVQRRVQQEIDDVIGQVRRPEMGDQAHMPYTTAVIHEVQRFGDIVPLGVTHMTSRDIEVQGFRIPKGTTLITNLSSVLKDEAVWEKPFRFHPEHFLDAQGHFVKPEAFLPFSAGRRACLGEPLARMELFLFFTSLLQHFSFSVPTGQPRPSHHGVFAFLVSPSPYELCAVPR
Outline: (§1)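 Human liver microsomes (0.25 mg/mL) in 0.1 M phosphate pH 7.4 were preincubated 5 min at 37 °C with a substrate cocktail (50 μM phenacetin, 10 μM diclofenac, 100 μM S-mephenytoin, 5 μM dextromethorphan, 2.5 μM midazolam) and 10 μM compound, then run 15 min with NADPH-generating system. Metabolites quantified by LC-MS/MS (MRM); activity expressed as % of untreated control.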

CYP1A2 = target: T2, CYP1A2 (Homo sapiens, UniProt P05177); assay: as above; assay type: in vitro ADME; conditions: 10 μM compound, human liver microsomes 0.25 mg/mL, substrate phenacetin, 15 minutes
T2 construct: human liver microsomes (0.25 mg/mL); from tissue; host or cells: human liver microsomes
T2 sequence (P05177 1-516): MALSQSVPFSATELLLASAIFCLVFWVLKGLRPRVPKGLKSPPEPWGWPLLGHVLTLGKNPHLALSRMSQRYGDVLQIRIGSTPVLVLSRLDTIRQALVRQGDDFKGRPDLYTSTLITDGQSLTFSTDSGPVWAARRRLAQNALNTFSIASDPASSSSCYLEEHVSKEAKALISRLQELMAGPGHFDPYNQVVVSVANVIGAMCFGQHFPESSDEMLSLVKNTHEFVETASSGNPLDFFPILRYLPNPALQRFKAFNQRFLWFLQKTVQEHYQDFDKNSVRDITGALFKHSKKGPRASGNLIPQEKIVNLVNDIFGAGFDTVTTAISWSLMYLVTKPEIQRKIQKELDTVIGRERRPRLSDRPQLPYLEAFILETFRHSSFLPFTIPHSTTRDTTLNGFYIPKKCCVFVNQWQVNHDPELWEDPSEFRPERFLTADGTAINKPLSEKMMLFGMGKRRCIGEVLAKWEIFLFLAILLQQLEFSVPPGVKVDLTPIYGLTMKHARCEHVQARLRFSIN
Outline: as §1

CYP2C19 = target: T3, CYP2C19 (Homo sapiens, UniProt P33261); assay: as above; assay type: in vitro ADME; conditions: 10 μM compound, human liver microsomes 0.25 mg/mL, substrate S-mephenytoin, 15 minutes
T3 construct: human liver microsomes (0.25 mg/mL); from tissue; host or cells: human liver microsomes
T3 sequence (P33261 whole entry): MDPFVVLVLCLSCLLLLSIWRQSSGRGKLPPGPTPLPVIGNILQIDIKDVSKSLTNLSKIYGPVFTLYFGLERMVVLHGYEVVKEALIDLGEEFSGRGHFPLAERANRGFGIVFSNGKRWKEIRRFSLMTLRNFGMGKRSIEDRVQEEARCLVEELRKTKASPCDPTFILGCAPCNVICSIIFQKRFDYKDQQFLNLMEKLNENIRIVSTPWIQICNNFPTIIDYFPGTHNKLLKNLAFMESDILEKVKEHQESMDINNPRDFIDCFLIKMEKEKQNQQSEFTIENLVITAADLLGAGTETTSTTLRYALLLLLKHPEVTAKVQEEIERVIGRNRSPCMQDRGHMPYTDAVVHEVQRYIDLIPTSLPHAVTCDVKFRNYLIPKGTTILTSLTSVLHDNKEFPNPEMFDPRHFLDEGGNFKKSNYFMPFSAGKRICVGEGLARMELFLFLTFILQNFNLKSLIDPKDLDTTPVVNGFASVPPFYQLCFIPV
Outline: as §1

Row | Compound | Cell viability (% @10 μM) (Tau-BiFC cells) | CYP2D6 coenzyme activity (%) with respect to control group not treated (CYP2D6) | CYP1A2 coenzyme activity (%) with respect to control group not treated (CYP1A2) | CYP2C19 coenzyme activity (%) with respect to control group not treated (CYP2C19)
1 | CC(C)n1c(=O)n(C2CC2)c2ccc(NN=C(C#N)C#N)cc21 [Compound 42, (1-cyclopropyl-3-isopropyl-2-oxo-2,3-dihydro-1H-benzo[d]imidazol-5-yl)carbonohydrazonoyl dicyanide] | 124% | >100% | 91.9% | >100%
2 | CCn1c(=O)n(C)c2ccc(NN=C(C#N)C#N)cc21 [Compound 35, (3-ethyl-1-methyl-2-oxo-2,3-dihydro-1H-benzo[d]imidazol-5-yl)carbonohydrazonoyl dicyanide] | 130% | >100% | 93.1% | 100%
3 | CC(C)n1c(=O)sc2cc(NN=C(C#N)C#N)ccc21 [Compound 18, (3-isopropyl-2-oxo-2,3-dihydrobenzo[d]thiazol-6-yl)carbonohydrazonoyl dicyanide] | 110.7% | 88.1% | 81.4% | 63.2%
